Results: US20050244486A1, “Topical methadone compositions and methods for using the same” (priority 2004, published 2005)
Converted amounts (≈) assume the structure as drawn. “And” between values parts separate entries of the source, which are not always exact repeats. Equal values may be shown once. Read-outs that look alike come from different tables or passages of the source.

Tests used:
[1] = Solubility of methadone in different solvents; type: physicochemical
Method: In this experiment, the solubility of methadone in a number of different solvents was evaluated. The solvents evaluated were mineral oil, N-methyl-2-pyrrolidone, diisopropyl adipate, DEET, PEG, Di (propylene glycol), dehydrated alcohol and water. […] The stability of the solutions was also evaluated.

[2] = Pharmacokinetic study A: topical Methadone-DEET solution, human plasma; details: 10% solution in DEET, one-day application to the skin
[3] = Pharmacokinetic study B: methadone patch, human plasma; type: in vivo; details: topical, Study B: 5 × 5 cm SIS patch (Methadone 10 weight %), 25 mg Methadone free base, applied 12 hours, left leg inner side above knee, 55 kg person, read-out: Concentrations of Methadone in Human Plasma Samples
[4] = Study 2: concentrations of methadone in rat plasma, topical administration versus intravenous injection; type: in vivo
Method: The test article was administered intravenously (IV) through the tail vein to animals in Group A. The injection was performed slowly. A gauze pad (1×1 cm) Saturated with 0.2 mL of the appropriate test article was applied to the clipped site on the back of the animals in Groups 2 and 3. The gauze pad was secured by occlusive tape. The animal was wrapped in gauze, which was held in place with Zonas porous tape.
Blood Collection: Blood (0.5 mL) was collected into sodium heparin tubes at the appropriate time points. The samples were centrifuged at approximately 2800 rpm at 2-8 degrees Celsius for approximately 15 minutes. Plasma was collected.

CCC(=O)C(CC(C)N(C)C)(c1ccccc1)c1ccccc1 (stereo not drawn) [Methadone, 6-dimethylamino-4,4-diphenyl-3-hepatone]
solubility at 48 h ([1]; organic solvent or mixture, N-methyl-2-pyrrolidone, 48 hour): 342 mg/mL (≈ 1110 mM)
solubility at 3 h ([1]; organic solvent or mixture, PEG - 400, 3 hour): 39.7 mg/mL (≈ 128 mM)
solubility at 6 h ([1]; organic solvent or mixture, PEG - 400, 6 hour): 39.9 mg/mL (≈ 129 mM)
solubility at 24 h ([1]; organic solvent or mixture, PEG - 400, 24 hour): 38.8 mg/mL (≈ 125 mM)
solubility at 48 h ([1]; organic solvent or mixture, PEG - 400, 48 hour): 36.8 mg/mL (≈ 119 mM)
solubility at 24 h ([1]; organic solvent or mixture, diisopropyl adipate, 24 hour): 360 mg/mL (≈ 1160 mM)
solubility at 3 h ([1]; thermodynamic from solid, water, 3 hour): 0.217 mg/mL (≈ 0.701 mM)
solubility at 6 h ([1]; thermodynamic from solid, water, 6 hour): 0.228 mg/mL (≈ 0.737 mM)
solubility at 24 h ([1]; thermodynamic from solid, water, 24 hour): 0.224 mg/mL (≈ 0.724 mM)
solubility at 48 h ([1]; thermodynamic from solid, water, 48 hour): 0.225 mg/mL (≈ 0.727 mM)
Irritation of human skin by topical methadone composition [2]: lack of irritation
concentration at 12 h ([3]; 12 hr): 5.36 ng/mL
concentration at 18 h ([3]; 18 hr): 4.95 ng/mL
concentration at 139.5 h ([3]; 139.5 hr): 2.24 ng/mL
Irritation of rat skin by topical application ([4]; Study 2, topical methadone solutions on rat skin): lack of irritation
Concentrations of Methadone in Rat Plasma Samples ([4]; Study 2 Group A: I.V. tail vein, 0.25 mL Test Article 1 (0.5 mg/mL Methadone-Saline Solution), 2 min, individual rats A1-A3): 72.0 ng/mL and 63.1 ng/mL
Concentrations of Methadone in Rat Plasma Samples ([4]; Study 2 Group A: I.V. tail vein, 0.25 mL Test Article 1 (0.5 mg/mL Methadone-Saline Solution), 20 min, individual rats A1-A3): 49.2 ng/mL and 59.5 ng/mL
Concentrations of Methadone in Rat Plasma Samples ([4]; Study 2 Group A: I.V. tail vein, 0.25 mL Test Article 1 (0.5 mg/mL Methadone-Saline Solution), 40 min, individual rats A1-A3): 33.0 ng/mL and 35.2 ng/mL
Concentrations of Methadone in Rat Plasma Samples ([4]; Study 2 Group A: I.V. tail vein, 0.25 mL Test Article 1 (0.5 mg/mL Methadone-Saline Solution), 60 min, individual rats A1-A3): 19.7 ng/mL and 24.0 ng/mL
Concentrations of Methadone in Rat Plasma Samples ([4]; Study 2 Group A: I.V. tail vein, 0.25 mL Test Article 1 (0.5 mg/mL Methadone-Saline Solution), 120 min, individual rats A1-A3): 19.5 ng/mL and 13.1 ng/mL and 9.26 ng/mL
Concentrations of Methadone in Rat Plasma Samples ([4]; Study 2 Group A: I.V. tail vein, 0.25 mL Test Article 1 (0.5 mg/mL Methadone-Saline Solution), 480 min, individual rats A1-A3): 1.83 ng/mL and 1.96 ng/mL
Concentrations of Methadone in Rat Plasma Samples ([4]; Study 2 Group A: I.V. tail vein, 0.25 mL Test Article 1 (0.5 mg/mL Methadone-Saline Solution), 1440 min, individual rats A1-A3): 2.31 ng/mL and 0.923 ng/mL
Concentrations of Methadone in Rat Plasma Samples ([4]; Study 2 Group A: I.V. tail vein, 0.25 mL Test Article 1 (0.5 mg/mL Methadone-Saline Solution), 2160 min, individual rats A1-A3): 0.905 ng/mL and 0.944 ng/mL
Concentrations of Methadone in Rat Plasma Samples ([4]; Study 2 Group B: topical dorsal flank, 1 × 1 cm gauze pad with 0.2 mL Test Article 2 (Methadone-Diisopropyl Adipate Solution 23.9%), 15 min, individual rats B1-B3): 1.49 ng/mL and 1.70 ng/mL
Concentrations of Methadone in Rat Plasma Samples ([4]; Study 2 Group B: topical dorsal flank, 1 × 1 cm gauze pad with 0.2 mL Test Article 2 (Methadone-Diisopropyl Adipate Solution 23.9%), 45 min, individual rats B1-B3): 5.66 ng/mL and 3.96 ng/mL and 17.0 ng/mL
Concentrations of Methadone in Rat Plasma Samples ([4]; Study 2 Group B: topical dorsal flank, 1 × 1 cm gauze pad with 0.2 mL Test Article 2 (Methadone-Diisopropyl Adipate Solution 23.9%), 90 min, individual rats B1-B3): 14.3 ng/mL and 27.1 ng/mL
Concentrations of Methadone in Rat Plasma Samples ([4]; Study 2 Group B: topical dorsal flank, 1 × 1 cm gauze pad with 0.2 mL Test Article 2 (Methadone-Diisopropyl Adipate Solution 23.9%), 120 min, individual rats B1-B3): 41.4 ng/mL and 19.1 ng/mL and 44.9 ng/mL
Concentrations of Methadone in Rat Plasma Samples ([4]; Study 2 Group B: topical dorsal flank, 1 × 1 cm gauze pad with 0.2 mL Test Article 2 (Methadone-Diisopropyl Adipate Solution 23.9%), 480 min, individual rats B1-B3): 159 ng/mL and 46.7 ng/mL and 300 ng/mL
Concentrations of Methadone in Rat Plasma Samples ([4]; Study 2 Group B: topical dorsal flank, 1 × 1 cm gauze pad with 0.2 mL Test Article 2 (Methadone-Diisopropyl Adipate Solution 23.9%), 1440 min, individual rats B1-B3): 117 ng/mL and 168 ng/mL
Concentrations of Methadone in Rat Plasma Samples ([4]; Study 2 Group B: topical dorsal flank, 1 × 1 cm gauze pad with 0.2 mL Test Article 2 (Methadone-Diisopropyl Adipate Solution 23.9%), 2160 min, individual rats B1-B3): 82.7 ng/mL and 126 ng/mL and 59.4 ng/mL
Concentrations of Methadone in Rat Plasma Samples ([4]; Study 2 Group B: topical dorsal flank, 1 × 1 cm gauze pad with 0.2 mL Test Article 2 (Methadone-Diisopropyl Adipate Solution 23.9%), 2880 min, individual rats B1-B3): 49.4 ng/mL and 173 ng/mL and 34.0 ng/mL
Concentrations of Methadone in Rat Plasma Samples ([4]; Study 2 Group C: topical dorsal flank, 1 × 1 cm gauze pad with 0.2 mL Test Article 3 (Methadone-DEET Solution 10%), 15 min, individual rats C1-C3): 0.84 ng/mL and 1.72 ng/mL and 1.04 ng/mL
Concentrations of Methadone in Rat Plasma Samples ([4]; Study 2 Group C: topical dorsal flank, 1 × 1 cm gauze pad with 0.2 mL Test Article 3 (Methadone-DEET Solution 10%), 45 min, individual rats C1-C3): 2.42 ng/mL and 1.71 ng/mL
Concentrations of Methadone in Rat Plasma Samples ([4]; Study 2 Group C: topical dorsal flank, 1 × 1 cm gauze pad with 0.2 mL Test Article 3 (Methadone-DEET Solution 10%), 90 min, individual rats C1-C3): 4.7 ng/mL and 2.89 ng/mL
Concentrations of Methadone in Rat Plasma Samples ([4]; Study 2 Group C: topical dorsal flank, 1 × 1 cm gauze pad with 0.2 mL Test Article 3 (Methadone-DEET Solution 10%), 120 min, individual rats C1-C3): 3.84 ng/mL and 7.73 ng/mL and 3.39 ng/mL
Concentrations of Methadone in Rat Plasma Samples ([4]; Study 2 Group C: topical dorsal flank, 1 × 1 cm gauze pad with 0.2 mL Test Article 3 (Methadone-DEET Solution 10%), 480 min, individual rats C1-C3): 18.0 ng/mL and 29.6 ng/mL and 14.3 ng/mL
Concentrations of Methadone in Rat Plasma Samples ([4]; Study 2 Group C: topical dorsal flank, 1 × 1 cm gauze pad with 0.2 mL Test Article 3 (Methadone-DEET Solution 10%), 1440 min, individual rats C1-C3): 20.0 ng/mL and 20.6 ng/mL
Concentrations of Methadone in Rat Plasma Samples ([4]; Study 2 Group C: topical dorsal flank, 1 × 1 cm gauze pad with 0.2 mL Test Article 3 (Methadone-DEET Solution 10%), 2160 min, individual rats C1-C3): 17.3 ng/mL and 35.1 ng/mL and 19.0 ng/mL
Concentrations of Methadone in Rat Plasma Samples ([4]; Study 2 Group C: topical dorsal flank, 1 × 1 cm gauze pad with 0.2 mL Test Article 3 (Methadone-DEET Solution 10%), 2880 min, individual rats C1-C3): 11.1 ng/mL and 23.7 ng/mL and 12.6 ng/mL
concentration at 45 min ([4]; rat, in vivo, 0.2 mL of 10% methadone solution, Study 2 Group C: topical dorsal flank, 1 × 1 cm gauze pad with 0.2 mL Test Article 3 (Methadone-DEET Solution 10%), 45 min, individual rats C1-C3, read-out: Concentrations of Methadone in Rat Plasma Samples): 2.08 ng/mL
concentration at 90 min ([4]; rat, in vivo, 0.2 mL of 10% methadone solution, Study 2 Group C: topical dorsal flank, 1 × 1 cm gauze pad with 0.2 mL Test Article 3 (Methadone-DEET Solution 10%), 90 min, individual rats C1-C3, read-out: Concentrations of Methadone in Rat Plasma Samples): 3.17 ng/mL
concentration at 1440 min ([4]; rat, in vivo, 0.2 mL of 10% methadone solution, Study 2 Group C: topical dorsal flank, 1 × 1 cm gauze pad with 0.2 mL Test Article 3 (Methadone-DEET Solution 10%), 1440 min, individual rats C1-C3, read-out: Concentrations of Methadone in Rat Plasma Samples): 27.8 ng/mL
concentration at 15 min ([4]; rat, in vivo, 0.2 mL of 23.9% methadone solution, Study 2 Group B: topical dorsal flank, 1 × 1 cm gauze pad with 0.2 mL Test Article 2 (Methadone-Diisopropyl Adipate Solution 23.9%), 15 min, individual rats B1-B3, read-out: Concentrations of Methadone in Rat Plasma Samples): 2.75 ng/mL
concentration at 90 min ([4]; rat, in vivo, 0.2 mL of 23.9% methadone solution, Study 2 Group B: topical dorsal flank, 1 × 1 cm gauze pad with 0.2 mL Test Article 2 (Methadone-Diisopropyl Adipate Solution 23.9%), 90 min, individual rats B1-B3, read-out: Concentrations of Methadone in Rat Plasma Samples): 24.8 ng/mL
concentration at 1440 min ([4]; rat, in vivo, 0.2 mL of 23.9% methadone solution, Study 2 Group B: topical dorsal flank, 1 × 1 cm gauze pad with 0.2 mL Test Article 2 (Methadone-Diisopropyl Adipate Solution 23.9%), 1440 min, individual rats B1-B3, read-out: Concentrations of Methadone in Rat Plasma Samples): 116 ng/mL
concentration at 2 min ([4]; rat, in vivo, iv, 0.125 mg, Study 2 Group A: I.V. tail vein, 0.25 mL Test Article 1 (0.5 mg/mL Methadone-Saline Solution), 2 min, individual rats A1-A3, read-out: Concentrations of Methadone in Rat Plasma Samples): 36.3 ng/mL
concentration at 20 min ([4]; rat, in vivo, iv, 0.125 mg, Study 2 Group A: I.V. tail vein, 0.25 mL Test Article 1 (0.5 mg/mL Methadone-Saline Solution), 20 min, individual rats A1-A3, read-out: Concentrations of Methadone in Rat Plasma Samples): 55.9 ng/mL
concentration at 40 min ([4]; rat, in vivo, iv, 0.125 mg, Study 2 Group A: I.V. tail vein, 0.25 mL Test Article 1 (0.5 mg/mL Methadone-Saline Solution), 40 min, individual rats A1-A3, read-out: Concentrations of Methadone in Rat Plasma Samples): 35.4 ng/mL
concentration at 60 min ([4]; rat, in vivo, iv, 0.125 mg, Study 2 Group A: I.V. tail vein, 0.25 mL Test Article 1 (0.5 mg/mL Methadone-Saline Solution), 60 min, individual rats A1-A3, read-out: Concentrations of Methadone in Rat Plasma Samples): 28.1 ng/mL
concentration at 480 min ([4]; rat, in vivo, iv, 0.125 mg, Study 2 Group A: I.V. tail vein, 0.25 mL Test Article 1 (0.5 mg/mL Methadone-Saline Solution), 480 min, individual rats A1-A3, read-out: Concentrations of Methadone in Rat Plasma Samples): 1.54 ng/mL
concentration at 2160 min ([4]; rat, in vivo, iv, 0.125 mg, Study 2 Group A: I.V. tail vein, 0.25 mL Test Article 1 (0.5 mg/mL Methadone-Saline Solution), 2160 min, individual rats A1-A3, read-out: Concentrations of Methadone in Rat Plasma Samples): 0.796 ng/mL
